Source: the NIST ThermoML archive (doi:10.1021/je034096z)
Numbers after ± are expanded uncertainties.

Conditions: Liquid

COCC(C)O (stereo not given) [1-methoxy-2-propanol]
Conditions | vapor or sublimation pressure [kPa]
347.62 K | 19.25 ± 0.038
352.64 K | 23.74 ± 0.04
353.15 K | 24.25 ± 0.39
357.89 K | 29.35 ± 0.042
362.93 K | 35.72 ± 0.045
363.15 K | 36.03 ± 0.42
368.03 K | 43.29 ± 0.048
373.15 K | 52.16 ± 0.47
373.22 K | 52.3 ± 0.052
378.01 K | 61.89 ± 0.055

CCCCCCOCCOCCO [2-(2-hexyloxyethoxy)ethanol]
Conditions | vapor or sublimation pressure [kPa]
402.96 K | 1.111 ± 0.041
403.01 K | 1.117 ± 0.041
403.15 K | 1.124 ± 0.63
408.02 K | 1.435 ± 0.041
413.15 K | 1.831 ± 0.63
413.2 K | 1.835 ± 0.041
418.17 K | 2.293 ± 0.041
422.87 K | 2.825 ± 0.041
423.15 K | 2.858 ± 0.041

CN1CCCC1=O [N-methylpyrrolidone]
Conditions | vapor or sublimation pressure [kPa]
352.27 K | 1.285 ± 0.031
352.48 K | 1.297 ± 0.031
353.15 K | 1.344 ± 0.31
359.26 K | 1.823 ± 0.032
363.15 K | 2.193 ± 0.32
363.36 K | 2.217 ± 0.032
368.27 K | 2.777 ± 0.032
373.09 K | 3.444 ± 0.032
373.15 K | 3.456 ± 0.32
377.86 K | 4.229 ± 0.032

CC(O)CO (stereo not given) [1,2-propanediol]
Conditions | vapor or sublimation pressure [kPa]
393.22 K | 8.198 ± 0.067
393.25 K | 8.207 ± 0.067
398.09 K | 10.23 ± 0.068
403.14 K | 12.77 ± 0.07
403.15 K | 12.77 ± 0.7
408.3 K | 15.89 ± 0.072
413.1 K | 19.36 ± 0.074
413.15 K | 19.39 ± 0.74
418.16 K | 23.68 ± 0.077
423.15 K | 28.69 ± 0.8
423.26 K | 28.81 ± 0.081
